Source: US20250122218A1, “MODULATORS OF CYSTIC FIBROSIS TRANSMEMBRANE CONDUCTANCE REGULATOR” (Vertex Pharmaceuticals Incorporated, priority 2022, published 2025)
pEC50: −log10 of the molar value. Like-named read-outs stand apart in the source and are kept apart here.

How the values were obtained:
[1] = target: T1, CFTR in F508del/MF-HBE cells (Homo sapiens, UniProt P13569, DEL508-508); test: Ussing chamber assay of CFTR-mediated short-circuit currents (identification of potentiator compounds); type: cell-based; settings: potentiator incubated 18-24 hours at 37° C. in combination with 10 μM corrector, in the presence of 20% human serum, CFTR-mediated ISC
T1 construct: human bronchial epithelial (HBE) cells derived from CF subjects heterozygous for F508del and a minimal function CFTR mutation; endogenous in cells; host or cells: primary human bronchial epithelial cells from CF subjects (F508del/MF-HBE)
How it was run: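 Short-circuit current was measured in Ussing chambers at 37° C, Vhold 0 mV, 30 μM apical amiloride. CFTR current was defined as the forskolin (20 μM) response relative to the current remaining after BPO/GlyH-101/inhibitor 172 (20 μM each). Before recording, cells had 18-24 h exposure to test potentiators with 10 μM corrector compound in 20% human serum.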

T1 sequence (P13569 with tags, fused parts or gaps DEL508-508): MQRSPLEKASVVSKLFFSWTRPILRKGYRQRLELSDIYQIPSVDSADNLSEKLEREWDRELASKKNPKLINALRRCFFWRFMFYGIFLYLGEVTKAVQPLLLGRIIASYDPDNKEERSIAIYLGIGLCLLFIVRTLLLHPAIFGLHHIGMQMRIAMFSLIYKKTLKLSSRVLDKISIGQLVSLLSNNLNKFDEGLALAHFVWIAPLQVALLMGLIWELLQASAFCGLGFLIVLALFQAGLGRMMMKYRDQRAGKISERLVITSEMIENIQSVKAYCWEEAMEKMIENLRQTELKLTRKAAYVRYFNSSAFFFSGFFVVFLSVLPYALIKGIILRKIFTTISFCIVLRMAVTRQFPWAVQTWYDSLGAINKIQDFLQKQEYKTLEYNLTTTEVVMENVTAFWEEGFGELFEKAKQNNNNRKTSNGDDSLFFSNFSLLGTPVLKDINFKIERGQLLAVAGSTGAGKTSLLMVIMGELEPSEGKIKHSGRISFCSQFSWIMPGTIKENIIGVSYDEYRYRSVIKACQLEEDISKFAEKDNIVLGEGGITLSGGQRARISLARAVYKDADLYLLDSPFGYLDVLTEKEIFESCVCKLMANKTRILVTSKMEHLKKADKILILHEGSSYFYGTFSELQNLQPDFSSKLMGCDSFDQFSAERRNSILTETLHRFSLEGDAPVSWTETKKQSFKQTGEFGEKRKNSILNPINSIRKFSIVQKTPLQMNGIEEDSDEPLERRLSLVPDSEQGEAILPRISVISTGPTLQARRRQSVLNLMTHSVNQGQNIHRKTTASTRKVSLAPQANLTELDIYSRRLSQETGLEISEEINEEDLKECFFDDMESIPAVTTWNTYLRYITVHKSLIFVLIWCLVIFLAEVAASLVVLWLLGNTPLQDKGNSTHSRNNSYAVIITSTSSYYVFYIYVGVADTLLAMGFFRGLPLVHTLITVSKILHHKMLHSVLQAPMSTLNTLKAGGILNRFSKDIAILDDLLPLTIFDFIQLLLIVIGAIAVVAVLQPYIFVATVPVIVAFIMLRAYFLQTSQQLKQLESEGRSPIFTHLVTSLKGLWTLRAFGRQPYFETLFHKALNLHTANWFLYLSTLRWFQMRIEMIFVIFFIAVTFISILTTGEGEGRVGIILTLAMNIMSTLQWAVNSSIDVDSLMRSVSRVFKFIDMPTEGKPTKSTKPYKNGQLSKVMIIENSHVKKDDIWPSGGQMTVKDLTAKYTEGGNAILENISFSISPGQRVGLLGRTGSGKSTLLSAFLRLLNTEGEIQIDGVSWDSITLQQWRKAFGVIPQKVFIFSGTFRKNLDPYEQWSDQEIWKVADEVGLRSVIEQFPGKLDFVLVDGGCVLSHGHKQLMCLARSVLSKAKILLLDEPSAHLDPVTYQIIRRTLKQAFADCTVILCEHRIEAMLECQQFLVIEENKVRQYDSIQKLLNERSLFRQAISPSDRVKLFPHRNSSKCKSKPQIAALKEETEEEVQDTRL

Structure (SMILES): CN1CCCCC(OCc2ccccc2)(C(F)(F)F)C2=NN=C(O2)c2nc(c(C(F)(F)F)cc2N)CC1=O (stereo not shown)
- ring closure, isolated yield (from CNCCCCC(OCc1ccccc1)(c1nnc(-c2nc(CC(=O)O)c(C(F)(F)F)cc2N)o1)C(F)(F)F, amide bond, 14-membered ring, T3P/DIEA, EtOAc/NMP, 35.7 mM, 5.0 h): 45%

Structure (SMILES): Nc1cc(C(F)(F)F)c2nc1-c1nnc(o1)C(OCc1ccccc1)(C(F)(F)F)CCCCN(Cc1ccccc1)C(=O)C2 (stereo not shown)
- ring closure, isolated yield (from Nc1cc(C(F)(F)F)c(CC(=O)O)nc1-c1nnc(C(CCCCNCc2ccccc2)(OCc2ccccc2)C(F)(F)F)o1, amide bond, 14-membered ring, T3P/DIEA, EtOAc/NMP, 31.5 mM, 2.0 h): 66%

Structure (SMILES): CC(C)(C)OC(=O)Nc1cc(C(F)(F)F)c2nc1-c1nnc(o1)C(O)(C(F)(F)F)c1cccc(c1)C=CCCC2C#N (mixture of isomers)
- ring closure, isolated yield (from C=CCCC(C#N)c1nc(-c2nnc(C(O)(c3cccc(I)c3)C(F)(F)F)o2)c(NC(=O)OC(C)(C)C)cc1C(F)(F)F, cc_pd bond, 15-membered ring, Pd(OAc)2/P(o-tol)3/Et3N, MeCN, 9.4 mM, 80.0 °C): 93%

Structure (SMILES): CC(C)(C)OC(=O)Nc1cc(C(F)(F)F)c2nc1-c1nnc(o1)C(OCc1ccccc1)(C(F)(F)F)CCCCN(C1CC(F)(F)C1)C2=O (stereo not shown)
- ring closure, isolated yield (from CC(C)(C)OC(=O)Nc1cc(C(F)(F)F)c(C(=O)O)nc1-c1nnc(C(CCCCNC2CC(F)(F)C2)(OCc2ccccc2)C(F)(F)F)o1, amide bond, 13-membered ring, HATU/DIEA, DMF, 2.67 mM, 1.0 h): 33%

Structure (SMILES): COC1CCC=Cc2ccc(F)c(c2)C(O)(C(F)(F)F)C2=NN=C(O2)c2nc1c(C(F)(F)F)cc2NC(=O)OC(C)(C)C (mixture of isomers)
- ring closure, isolated yield (from C=CCCC(OC)c1nc(-c2nnc(C(O)(c3cc(I)ccc3F)C(F)(F)F)o2)c(NC(=O)OC(C)(C)C)cc1C(F)(F)F, cc_pd bond, 15-membered ring, Pd(OAc)2/P(o-tol)3/Et3N, MeCN, 6.3 mM, 80.0 °C, 16.0 h): 62%

Structure (SMILES): CC(C)N1CCCCC(OCc2ccccc2)(C(F)(F)F)C2=NN=C(O2)c2nc(c(C(F)(F)F)cc2N)CC1=O (stereo not shown)
- ring closure, isolated yield (from CC(C)NCCCCC(OCc1ccccc1)(c1nnc(-c2nc(CC(=O)O)c(C(F)(F)F)cc2N)o1)C(F)(F)F, amide bond, 14-membered ring, T3P/DIEA, EtOAc/NMP, 33.9 mM, 2.0 h): 23%

Structure (SMILES): CC(C)(C)OC(=O)Nc1cc(C(F)(F)F)c2nc1-c1nnc(o1)C(OCc1ccccc1)(C(F)(F)F)CCC=CCCC2 (mixture of isomers)
- ring closure, isolated yield (from C=CCCCc1nc(-c2nnc(C(CCC=C)(OCc3ccccc3)C(F)(F)F)o2)c(NC(=O)OC(C)(C)C)cc1C(F)(F)F, rcm bond, 14-membered ring, Grubbs II (22 mol%), toluene, 2.63 mM, 100.0 °C): 39%

Structure (SMILES): Nc1cc(C(F)(F)F)c2nc1-c1nnc(o1)[C@@](O)(C(F)(F)F)CCCCCN(C1CCCC1)C2=O [Compound 100, (6R)-17-Amino-12-cyclopentyl-6-hydroxy-6,15-bis (trifluoromethyl)-19-oxa-3,4,12,18-tetrazatricyclo [12.3.1.12,5] nonadeca-1(18),2,4,14,1 6-pentaen-13-one]
- pEC50 [1]: > 6.30

Structure (SMILES): N#Cc1cccc(CN2CCCCC[C@](O)(C(F)(F)F)C3=NN=C(O3)c3nc(c(C(F)(F)F)cc3N)C2=O)c1 [Compound 271, 3-[[(6R)-17-amino-6-hydroxy-13-oxo-6,15-bis(trifluoromethyl)-19-oxa-3,4,12,18-tetrazatricyclo[12.3.1.12,5]nonadeca-1(18),2,4,14,16-pentaen-12-yl]methyl]benzonitrile]
- pEC50 [1]: > 6.30

Structure (SMILES): CN1CCCCCC(O)(C(F)(F)F)C2=NN=C(O2)c2nc(c(C(F)(F)F)cc2N)C1=O (single isomer, unassigned) [Compound 72, 17-Amino-6-hydroxy-12-methyl-6,15-bis(trifluoromethyl)-19-oxa-3,4,12,18-tetrazatricyclo[12.3.1.12,5]nonadeca-1(18),2,4,14,16-pentaen-13-one]
- pEC50 [1]: > 6.30
